For test [1], the target named is T1, human orexin-1 receptor (Homo sapiens, UniProt O43613).
T1 construct: expressed in transfected cells; host or cells: CHO cells (grown under G418 selection)
T1 sequence (O43613 1-425): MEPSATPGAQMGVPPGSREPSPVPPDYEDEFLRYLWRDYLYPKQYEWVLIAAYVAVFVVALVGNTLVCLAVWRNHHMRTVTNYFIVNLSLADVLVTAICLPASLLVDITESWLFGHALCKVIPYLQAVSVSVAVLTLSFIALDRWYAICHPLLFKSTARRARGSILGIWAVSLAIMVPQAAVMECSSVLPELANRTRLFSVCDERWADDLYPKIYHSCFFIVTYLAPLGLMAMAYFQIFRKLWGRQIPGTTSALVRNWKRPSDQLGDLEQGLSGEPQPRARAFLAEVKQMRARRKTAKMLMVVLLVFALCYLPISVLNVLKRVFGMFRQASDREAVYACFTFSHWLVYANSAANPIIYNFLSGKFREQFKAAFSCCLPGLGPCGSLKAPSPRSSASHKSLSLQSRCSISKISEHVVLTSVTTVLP
In words: Intracellular calcium measurements (FLIPR), orexin receptor antagonistic activity. The test is classed as cell-based. The settings on record: CHO cells expressing human orexin-1 receptor; 10 nM orexin-A as agonist; fluo-3 AM calcium signal; read-out: OX1 IC50. The method, then: (§1) The orexin receptor antagonistic activity of the compounds of formula (I) is determined in accordance with the following experimental method.
(§2) Chinese hamster ovary (CHO) cells expressing the human orexin-1 receptor and the human orexin-2 receptor, respectively, are grown in culture medium (Ham F-12 with L-Glutamine) containing 300 μg/ml G418, 100 U/ml penicillin, 100 μg/ml streptomycin and 10% inactivated fetal calf serum (FCS). The cells are seeded at 80′000 cells/well into 96-well black clear bottom sterile plates (Costar) which have been precoated with 1% gelatine in Hanks' Balanced Salt Solution (HBSS). All reagents are from Gibco BRL. The seeded plates are incubated overnight at 37° C. in 5% CO2.
(§3) Human orexin-A as an agonist is prepared as 1 mM stock solution in methanol:water (1:1), diluted in HBSS containing 0.1% bovine serum albumin (BSA) and 2 mM HEPES for use in the assay at a final concentration of 10 nM.
(§4) Antagonists are prepared as 10 mM stock solution in DMSO, then diluted in 96-well plates, first in DMSO, then in HBSS containing 0.1% bovine serum albumin (BSA) and 2 mM HEPES.
(§5) On the day of the assay, 100 μl of loading medium (HBSS containing 1% FCS, 2 mM HEPES, 5 mM probenecid (Sigma) and 3 μM of the fluorescent calcium indicator fluo-3 AM (1 mM stock solution in DMSO with 10% pluronic acid) (Molecular Probes) is added to each well.
(§6) The 96-well plates are incubated for 60 min at 37° C. in 5% CO2. The loading solution is then aspirated and cells are washed 3 times with 200 μl HBSS containing 2.5 mM probenecid, 0.1% BSA, 2 mM HEPES. 100 μl of that same buffer is left in each well. Within the Fluorescent Imaging Plate Reader (FLIPR, Molecular Devices), antagonists are added to the plate in a volume of 50 μl, incubated for 20 min and finally 100 μl of agonist is added. Fluorescence is measured for each well at 1 second intervals, and the height of each fluorescence peak is compared to the height of the fluorescence peak induced by 10 nM orexin-A with buffer in place of antagonist. For each antagonist, IC50 value (the concentration of compound needed to inhibit 50% of the agonistic response) is determined.
(In general: A change in cytosolic calcium serves as a functional read-out for many receptors and channels.)

The target of test [2] is T2, human orexin-2 receptor (Homo sapiens, UniProt O43614).
T2 construct: expressed in transfected cells; host or cells: CHO cells (grown under G418 selection)
T2 sequence (O43614 1-444): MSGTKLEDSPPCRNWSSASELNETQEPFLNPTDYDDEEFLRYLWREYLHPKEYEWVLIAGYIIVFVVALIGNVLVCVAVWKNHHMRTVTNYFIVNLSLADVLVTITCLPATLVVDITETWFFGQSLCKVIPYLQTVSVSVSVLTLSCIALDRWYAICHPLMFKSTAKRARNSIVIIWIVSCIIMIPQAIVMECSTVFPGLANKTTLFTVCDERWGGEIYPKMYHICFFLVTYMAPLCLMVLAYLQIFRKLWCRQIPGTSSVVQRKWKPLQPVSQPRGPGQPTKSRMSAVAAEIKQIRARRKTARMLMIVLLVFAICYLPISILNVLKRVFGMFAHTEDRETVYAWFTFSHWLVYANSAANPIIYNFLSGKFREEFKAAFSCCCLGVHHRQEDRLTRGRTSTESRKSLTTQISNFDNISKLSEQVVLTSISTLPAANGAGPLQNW
The test is described as above. The settings on record: CHO cells expressing human orexin-2 receptor; 10 nM orexin-A as agonist; fluo-3 AM calcium signal; read-out: OX2 IC50. The test is classed as cell-based. The method, then:
as §1, §2, §3, §4, §5, §6

SMILES strings stand for the structures. pIC50: −log10 of the molar value.

The pIC50 is the IC50 on a negative log10 scale, so that one unit is a factor of ten.

In the case of `Cc1cccc(-c2sc(N)nc2C(=O)N2CC[C@H]2CNC(=O)c2c(Cl)nc3sccn23)c1` [Example 22, (2S)-6-Chloro-imidazo[2,1-b]thiazole-5-carboxylic acid [1-(2-amino-5-m-tolyl-thiazole-4-carbonyl)-azetidin-2-ylmethyl]-amide], the pIC50 in test [1] is 8.00; in test [2], 8.30.
For the molecule `Cc1cccc(-c2oc(C)nc2C(=O)N2CCC2CNC(=O)c2c(C)nc3sccn23)c1` (stereo not drawn) [Example 83, (2RS)-6-Methyl-imidazo[2,1-b]thiazole-5-carboxylic acid [1-5-(2-methyl-5-m-tolyl-oxazole-4-carbonyl)-azetidin-2-ylmethyl]-amide], the values for the negative-log IC50 (pIC50) in test [1] and in test [2] were 5.78 and 6.39, respectively.
The matching figures for `Cc1cccc(-c2sc(C)nc2C(=O)N2CCC2CNC(=O)c2c(C(F)(F)F)nc3sccn23)c1` (racemic) [Example 50, (2RS)-6-Trifluoromethyl-imidazo[2,1-b]thiazole-5-carboxylic acid [1-(2-methyl-5-m-tolyl-thiazole-4-carbonyl)-azetidin-2-ylmethyl]-amide]: 6.41 and 7.24.
Take `Cc1cccc(-c2sc(C)nc2C(=O)N2CCC2CNC(=O)c2nc3sccn3c2C)c1` (racemic) [Example 42, (2RS)-5-Methyl-imidazo[2,1-b]thiazole-6-carboxylic acid [1-(2-methyl-5-m-tolyl-thiazole-4-carbonyl)-azetidin-2-ylmethyl]-amide]: the figures for the pIC50 in test [1] and in test [2] were 7.07 and 7.39, respectively.
On to `Cc1cccc(-c2sc(C)nc2C(=O)N2CCC2CNC(=O)c2nc3scc(C)n3c2C)c1` (racemic) [Example 40, (2RS)-3,5-Dimethyl-imidazo[2,1-b]thiazole-6-carboxylic acid [1-(2-methyl-5-m-tolyl-thiazole-4-carbonyl)-azetidin-2-ylmethyl]-amide], for which the negative-log IC50 (pIC50) is 7.96 in test [1] and 7.41 in test [2].
The matching figures for `COc1ccc(-c2sc(C)nc2C(=O)N2CCC2CNC(=O)c2c(C)nc3sccn23)cc1` (stereo not drawn) [Example 28, (2RS)-6-Methyl-imidazo[2,1-b]thiazole-5-carboxylic acid{1-[5-(4-methoxy-phenyl)-2-methyl-thiazole-4-carbonyl]-azetidin-2-ylmethyl}-amide]: 7.05 and 7.96.
The matching figures for `Cc1cccc(-c2sc(C)nc2C(=O)N2CCC2CNC(=O)c2cccc3c2OCCN3C)c1` (racemic) [Example 54, (2RS)-4-Methyl-3,4-dihydro-2H-benzo[1,4]oxazine-8-carboxylic acid [1-(2-methyl-5-m-tolyl-thiazole-4-carbonyl)-azetidin-2-ylmethyl]-amide]: 5.51 and 7.89.
Take `Cc1nc(C(=O)N2CCC2CNC(=O)c2c(C)nc3sccn23)c(-c2cccc(F)c2)s1` (stereo not drawn) [Example 11, (2RS)-6-Methyl-imidazo[2,1-b]thiazole-5-carboxylic acid{1-[5-(3-fluoro-phenyl)-2-methyl-thiazole-4-carbonyl]-azetidin-2-ylmethyl}-amide]: the negative logarithm of the IC50 (pIC50) was 6.71 in test [1] and 7.18 in test [2].
For `Cc1cccc(-c2sc(C)nc2C(=O)N2CCC2CNC(=O)c2cccc3c2OCCC3)c1` (racemic) [Example 57, (2RS)-Chroman-8-carboxylic acid [1-(2-methyl-5-m-tolyl-thiazole-4-carbonyl)-azetidin-2-ylmethyl]-amide] the same measures were 5.92 and 7.72.
For `COc1ccccc1C(=O)N1CC[C@H]1CNC(=O)c1cccc2occc12` [Example 9, (2S)-benzofuran-4-carboxylic acid [1-(2-methoxy-benzoyl)-azetidin-2-ylmethyl]-amide] the same measures were 7.06 and 6.91.
`Cc1cccc(-c2sc(C)nc2C(=O)N2CC[C@H]2CNC(=O)c2c(Cl)nc3sccn23)c1` [Example 21, (2S)-6-Chloro-imidazo[2,1-b]thiazole-5-carboxylic acid [1-(2-methyl-5-m-tolyl-thiazole-4-carbonyl)-azetidin-2-ylmethyl]-amide]: the results for the pIC50 in test [1] and in test [2] were 7.39 and 8.15, respectively.
For `Cc1cccc(-c2sc(C)nc2C(=O)N2CCC2CNC(=O)c2cnc3scc(C)n23)c1` (racemic) [Example 61, (2RS)-3-Methyl-imidazo[2,1-b]thiazole-5-carboxylic acid [1-(2-methyl-5-m-tolyl-thiazole-4-carbonyl)-azetidin-2-ylmethyl]-amide] the same measures were 5.72 and 7.37.
For `Cc1nc(C(=O)N2CCC2CNC(=O)c2c(C)nc3sccn23)c(-c2ccc(F)c(F)c2)s1` (stereo not drawn) [Example 67, (2RS)-6-Methyl-imidazo[2,1-b]thiazole-5-carboxylic acid{1-[5-(3,4-difluoro-phenyl)-2-methyl-thiazole-4-carbonyl]-azetidin-2-ylmethyl}-amide] the same measures were 5.70 and 6.99.
For `Cc1nc(C(=O)N2CCC2CNC(=O)c2c(C)nc3sccn23)c(-c2ccc(Cl)c(Cl)c2)s1` (racemic) [Example 32, (2RS)-6-Methyl-imidazo[2,1-b]thiazole-5-carboxylic acid{1-[5-(3,4-dichloro-phenyl)-2-methyl-thiazole-4-carbonyl]-azetidin-2-ylmethyl}-amide] the same measures were 7.12 and 7.60.
`Cc1ccc(-c2ccccc2C(=O)N2CC[C@H]2CNC(=O)c2cccc3occc23)cc1C` [Example 15, (2S)-Benzofuran-4-carboxylic acid [1-(3′,4′-dimethyl-biphenyl-2-carbonyl)-azetidin-2-ylmethyl]-amide]: the pIC50 was 7.15 in test [1] and 7.96 in test [2].
